Results reported in patent US20210145768A1, “MODULATING IMMUNE RESPONSE VIA TARGETING OF OLFACTORY RECEPTOR ACTIVITY” (La Jolla Institute for Allergy and Immunology, priority 2018, published 2021).
Values joined by “and” are separate entries in the source; they are usually repeats but may differ in a detail not shown here. Equal values may be shown once.

What was measured:
OR6A2 = molecular target: T1, OR6A2 (Homo sapiens, UniProt O95222); assay: IL-1β production in LPS-primed human MDMs; assay type: cell-based
T1 construct: OR6A2 protein surface expression in hMDMs was confirmed by flow cytometry; endogenous in cells; host or cells: human monocyte-derived macrophages from healthy donors (rhM-CSF, 7 d)
T1 sequence (O95222 1-327): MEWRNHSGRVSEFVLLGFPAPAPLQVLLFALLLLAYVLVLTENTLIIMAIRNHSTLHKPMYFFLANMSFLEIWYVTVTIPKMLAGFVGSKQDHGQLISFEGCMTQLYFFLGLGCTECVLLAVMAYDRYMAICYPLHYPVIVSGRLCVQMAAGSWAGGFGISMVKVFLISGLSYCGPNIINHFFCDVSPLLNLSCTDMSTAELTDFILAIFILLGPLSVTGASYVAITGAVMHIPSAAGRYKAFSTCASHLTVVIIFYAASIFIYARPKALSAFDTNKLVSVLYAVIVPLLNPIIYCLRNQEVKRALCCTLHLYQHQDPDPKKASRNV
Protocol: Mouse BMDMs and human MDMs were pretreated with LPS (50 ng/mL) or left untreated for 18 h at 37° C. and 5% CO2. After this period LPS pretreated and untreated cells were further incubated with Oct (10 μM) and Cit (100 μM) alone (LPS+Oct; LPS+Cit; Oct; Cit, respectively) or combined (LPS+Oct+Cit) for further 8 h. Supernatants were collected by centrifugation at 2000 g for 15 minutes at 4° C., collected and frozen at −80° C. until further IL-1β analysis by CBA (BD Biosciences).
Supernatants of stimulated cells and aortic tissue were analyzed by BD CBA Flex Sets (BD Biosciences) for mouse TNFα, CCL2, CCL4, IL-1β, or human TNF, IL6, and IL-1β according to the manufacturer's protocol. Samples were analyzed with LSR-II (BD Biosciences). Data was acquired with FACSDiva software (BD Biosciences) and analyzed with FCAP array software 3.0 (BD Biosciences).

[1] = Plasma lipids, body weight and hematological parameters in treated Apoe−/− mice; assay type: in vivo, mouse
Protocol: (§1) Male Apoe^−/− mice (9 to 10 wks old) were fed WD for 4 weeks. Oct or Cit were diluted in sterile phosphate buffered saline (PBS) (Gibco) at a final concentration of 10 μg/g. 100 μl were injected intraperitoneally (i.p.) every 3 days for 4 weeks (12 injections total) while maintaining WD administration. PBS+0.1% DMSO (Sigma Aldrich) was injected as a vehicle control following the same protocol. Mice were sacrificed, perfused with PBS implemented with 2% heparin (Fresenius Kabi USA, LLC) and aortas removed for en face atherosclerotic lesion assessment. Mouse whole blood (heart puncture) was collected in EDTA tubes. Leukocyte blood counts were determined with HemaVet 950 (Drew Scientific). Plasma was collected from blood centrifuged at 3000 g for 15 min at 4° C. and stored at −80° C. until further analysis. Lipid analysis of collected plasma was performed by IDEXX BioResearch.

Olfr2 [2] = molecular target: T2, Olfr2 (Mus musculus, UniProt Q9QWU6); assay: En face atherosclerosis quantification in Apoe−/− mice fed western diet; assay type: in vivo; parameters: Olfr2 expression was confirmed at the protein level on F4/80^+ vascular macrophages; from tissue; host or cells: explanted whole aortas, digested aortic cell suspensions (F4/80+ vascular macrophages) and blood monocytes of Apoe-/- C57BL/6J mice; living Apoe-/- mice for the in vivo study; settings: for atherosclerosis in mice: summary of in vivo injection experiments
T2 sequence (Q9QWU6 1-327): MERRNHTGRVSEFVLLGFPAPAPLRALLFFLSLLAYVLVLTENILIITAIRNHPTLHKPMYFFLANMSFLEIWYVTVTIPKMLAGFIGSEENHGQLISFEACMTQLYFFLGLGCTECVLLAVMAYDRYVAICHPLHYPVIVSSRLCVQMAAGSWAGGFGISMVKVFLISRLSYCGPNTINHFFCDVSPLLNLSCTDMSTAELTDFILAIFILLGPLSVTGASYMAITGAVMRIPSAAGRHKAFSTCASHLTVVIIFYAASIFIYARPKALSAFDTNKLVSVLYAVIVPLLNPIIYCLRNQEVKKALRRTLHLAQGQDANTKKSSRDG
Protocol: The effect of citral on atherosclerosis in Apoe−/− mice fed a high fat western diet, a widely used model of atherosclerosis, was investigated. Briefly, ApoE^−/− Mice (10 weeks old) were fed WD for 4 weeks before the inhibitor treatment, citral, was started. Citral at 10 mg/kg was diluted in 100 uL of PBS and injected I.P. every 3 days for 4 weeks for a total of 12 injections. During this time, mice continue to eat WD for a total of 8 weeks. […] Thus, blocking Olfr2 is anti-atherosclerotic, showing that Olfr2 contributes to atherosclerosis.
To test a possible impact of Olfr2 on atherosclerosis in vivo, male Apoe^−/− mice were fed WD for 8 weeks and injected octanal (10 μg/g) intraperitoneally for the last 4 weeks every three days for a total of 12 injections. […] Octanal had no effect on total cholesterol, LDL cholesterol, HDL cholesterol or triglycerides (FIG. 11A). Similarly, in a loss-of-function experiment, male Apoe^−/− mice were treated with citral (10 μg/g, 12 injections over 4 weeks), which reduced the size of atherosclerotic lesions by ˜40% (FIGS. 10F and G). Citral treatment like octanal had no effect on other parameters (FIG. 11A).
as §1, with “analysis.” for “analysis. Lipid analysis of collected plasma was performed by IDEXX BioResearch.”
After explant, each aorta was pinned out after 4% paraformaldehyde incubation at room temperature for at least 2 hours Staining for atherosclerotic plaque was performed by incubating samples in Sudan IV. Microphotographs of the luminal (endothelial) aspect were of the aortic surface were analyzed using Photoshop CS (Adobe Systems). Atherosclerotic lesion size measurement was performed by blinded investigators using Image-Pro Premier software (Media Cybernetics).

Olfr2 [3] = molecular target: T2, Olfr2; settings: Olfr2 binding of medium-chain aliphatic aldehydes; cited from earlier work

| SMILES | octanal-induced IL-1β in the supernatant, hMDMs (OR6A2; LPS, octanal + citral) | other parameters (body weight, hematological, lipids) ([1]; citral-treated Apoe−/− mice) | reduction of atherosclerotic lesion size (Olfr2 [2]; Apoe−/− mice on WD 8 weeks, citral 10 μg/g i.p. every 3 days, 12 injections over last 4 weeks) | atherosclerotic lesions, % of the aortic area (Olfr2 [2]; Apoe−/− mice on WD, citral 10 mg/kg i.p., 12 injections, untreated ~8%, P<0.02) [%] | atherosclerosis in mice (Olfr2 [2]) | EC50 (Olfr2 [3]) [µM] | IL-1β in the supernatant, hMDMs (OR6A2; LPS 50 ng/mL 18 h, then octanal) | total cholesterol, LDL cholesterol, HDL cholesterol or triglycerides ([1]; octanal-treated Apoe−/− mice) | lesion size, en face staining of aortic arches (Olfr2 [2]; Apoe−/− mice on WD 8 weeks, octanal 10 μg/g i.p., 12 injections over last 4 weeks) |
| --- | --- | --- | --- | --- | --- | --- | --- | --- | --- |
| CC(C)=CCCC(C)=CC=O [citral] | partially but significantly inhibited | no effect | ~50% and ~40% | ~5 | protected mice from atherosclerosis | – | – | – | – |
| CCCCCCCC=O [octanal] | – | – | – | – | exacerbated atherosclerosis | ~10 | highly significant increase | no effect | more than doubled |
